This assay deals with T1, Full length human recombinant HDAC6 protein (Homo sapiens, UniProt Q9UBN7).
T1 sequence (Q9UBN7 1-1215): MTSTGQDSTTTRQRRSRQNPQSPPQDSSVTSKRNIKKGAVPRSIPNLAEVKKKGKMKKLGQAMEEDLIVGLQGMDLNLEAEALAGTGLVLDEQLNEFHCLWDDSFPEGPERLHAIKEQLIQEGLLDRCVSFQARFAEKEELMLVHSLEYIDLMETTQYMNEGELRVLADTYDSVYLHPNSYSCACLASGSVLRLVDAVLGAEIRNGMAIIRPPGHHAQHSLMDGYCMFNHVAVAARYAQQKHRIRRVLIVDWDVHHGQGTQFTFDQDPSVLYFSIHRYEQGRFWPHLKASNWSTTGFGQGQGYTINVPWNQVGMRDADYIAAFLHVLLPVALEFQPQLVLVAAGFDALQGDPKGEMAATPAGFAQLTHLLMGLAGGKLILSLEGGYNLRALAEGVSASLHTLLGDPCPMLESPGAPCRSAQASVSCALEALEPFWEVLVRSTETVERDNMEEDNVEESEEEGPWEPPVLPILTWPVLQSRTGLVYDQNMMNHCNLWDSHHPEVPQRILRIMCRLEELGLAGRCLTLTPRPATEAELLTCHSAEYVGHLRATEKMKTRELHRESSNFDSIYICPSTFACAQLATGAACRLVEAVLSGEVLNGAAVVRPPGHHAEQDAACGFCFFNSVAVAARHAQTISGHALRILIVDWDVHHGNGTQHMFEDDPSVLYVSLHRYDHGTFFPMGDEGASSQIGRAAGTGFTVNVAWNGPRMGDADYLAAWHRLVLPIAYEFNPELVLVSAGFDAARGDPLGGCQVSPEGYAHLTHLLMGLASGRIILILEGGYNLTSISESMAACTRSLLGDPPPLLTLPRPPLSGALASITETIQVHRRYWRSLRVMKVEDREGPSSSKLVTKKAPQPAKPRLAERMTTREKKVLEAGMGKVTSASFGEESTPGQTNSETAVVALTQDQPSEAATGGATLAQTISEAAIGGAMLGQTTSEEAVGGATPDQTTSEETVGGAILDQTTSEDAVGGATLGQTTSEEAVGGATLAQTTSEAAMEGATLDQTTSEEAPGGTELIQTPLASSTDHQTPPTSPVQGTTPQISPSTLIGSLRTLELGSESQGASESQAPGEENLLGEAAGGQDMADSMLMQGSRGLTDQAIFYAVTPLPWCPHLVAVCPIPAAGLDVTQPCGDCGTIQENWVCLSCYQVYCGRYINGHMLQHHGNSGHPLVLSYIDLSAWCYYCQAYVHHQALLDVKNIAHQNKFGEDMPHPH
Nature of the assay: In vitro histone deacetylase assay: enzymatic HDAC6 electrophoretic mobility shift assay. The format is biochemical. As to conditions: 1 nM enzyme, 2 μM peptide substrate RHKK(Ac)-NH2, 25° C., 12 concentrations; read-out: Inhibitory Concentration (IC50) Values against HDAC6, Activity Range.

A value given as a limit tells only on which side of the number the result lay.

As to `C[C@H]1COc2cc(C(=O)NO)ccc2CN1C(=O)C1CCS(=O)(=O)CC1` [(S)-4-(1,1-dioxidotetrahydro-2H-thiopyran-4-carbonyl)-N-hydroxy-3-methyl-2,3,4,5-tetrahydrobenzo[f][1,4]oxazepine-8-carboxamide], the IC50 is at most 0.1 µM.

Regarding `Cn1c(C(=O)N2CCOc3cc(C(=O)NO)ccc3C2)cc2ccccc21` [N-hydroxy-4-(1-methyl-1H-indole-2-carbonyl)-2,3,4,5-tetrahydrobenzo[f][1,4]oxazepine-8-carboxamide], the IC50 is at most 0.1 µM.

Consider `O=C(NO)c1ccc2c(c1)OCCN(C(=O)[C@@H]1CCOC1)C2` [(R)-N-hydroxy-4-(tetrahydrofuran-3-carbonyl)-2,3,4,5-tetrahydrobenzo[f][1,4]oxazepine-8-carboxamide], for which the IC50 is at most 0.1 µM.

For the compound `O=C(NO)c1ccc2c(c1)OCCN(C(=O)C1CC13CCNCC3)C2` (stereo not shown) [N-hydroxy-4-(6-azaspiro[2.5]octane-1-carbonyl)-2,3,4,5-tetrahydrobenzo[f][1,4]oxazepine-8-carboxamide], the IC50 was 0.1 to 0.5 µM.

On to `C[C@H]1COc2cc(C(=O)NO)ccc2CN1C(=O)C(C)(C)CO` [(S)-N-hydroxy-4-(3-hydroxy-2,2-dimethylpropanoyl)-3-methyl-2,3,4,5-tetrahydrobenzo[f][1,4]oxazepine-8-carboxamide], for which the IC50 was at most 0.1 µM.

For `CC(=O)N1Cc2ccc(C(=O)NO)cc2OC[C@H]1C(C)C` [(R)-4-acetyl-N-hydroxy-3-isopropyl-2,3,4,5-tetrahydrobenzo[f][1,4]oxazepine-8-carboxamide], the IC50 fell in the range of 0.1 to 0.5 µM.

As to `CC(Oc1ccccc1)C(=O)N1CCOc2cc(C(=O)NO)ccc2C1` (stereo not shown) [N-hydroxy-4-(2-phenoxypropanoyl)-2,3,4,5-tetrahydrobenzo[f][1,4]oxazepine-8-carboxamide], the IC50 fell in the range of 0.1 to 0.5 µM.

In the case of `COc1ccc(C(=O)N2CCOc3ccc(C(=O)NO)cc3C2)cc1` [N-hydroxy-4-(4-methoxybenzoyl)-2,3,4,5-tetrahydrobenzo[f][1,4]oxazepine-7-carboxamide], the IC50 was over 0.5 µM.

In the case of `CC(C)(C)OC(=O)N1CCC2(CCC(C(=O)N3CCOc4cc(C(=O)NO)ccc4C3)C2)CC1` (stereo not shown) [tert-butyl 2-(8-(hydroxycarbamoyl)-2,3,4,5-tetrahydrobenzo[f][1,4]oxazepine-4-carbonyl)-8-azaspiro[4.5]decane-8-carboxylate], the IC50 was in the range of 0.1 to 0.5 µM.

In the case of `O=C(NO)c1cnc2c(c1)OCCN(C(=O)C1CCCCC1)C2` [4-(cyclohexanecarbonyl)-N-hydroxy-2,3,4,5-tetrahydropyrido[2,3-f][1,4]oxazepine-8-carboxamide], the IC50 lay within 0.1 to 0.5 µM.

For `O=C(NO)c1ccc2c(c1)OCCN(C(=O)CCC(F)(F)F)C2` [N-hydroxy-4-(4,4,4-trifluorobutanoyl)-2,3,4,5-tetrahydrobenzo[f][1,4]oxazepine-8-carboxamide], the IC50 lay in the range of 0.1 to 0.5 µM.

As to `COC1(C(=O)N2CCOc3cc(C(=O)NO)ccc3C2)CC1` [N-hydroxy-4-(1-methoxycyclopropane-1-carbonyl)-2,3,4,5-tetrahydrobenzo[f][1,4]oxazepine-8-carboxamide], the IC50 was at most 0.1 µM.

Consider `CC(C)(C)C(=O)N1CCOc2cc(C(=O)NO)ccc2C1` [N-hydroxy-4-pivaloyl-2,3,4,5-tetrahydrobenzo[f][1,4]oxazepine-8-carboxamide], for which the IC50 was at most 0.1 µM.

As to `C[C@H]1COc2cc(C(=O)NO)ccc2CN1C(=O)C1CC(OCc2ccccc2)C1` (stereo partly drawn) [(S)-4-(3-(benzyloxy)cyclobutane-1-carbonyl)-N-hydroxy-3-methyl-2,3,4,5-tetrahydrobenzo[f][1,4]oxazepine-8-carboxamide], the IC50 is at most 0.1 µM.

Consider `C[C@@H]1CN(C(=O)C2(C)CCC2)Cc2ccc(C(=O)NO)cc2O1` [(R)-N-hydroxy-2-methyl-4-(1-methylcyclobutane-1-carbonyl)-2,3,4,5-tetrahydrobenzo[f][1,4]oxazepine-8-carboxamide], for which the IC50 is at most 0.1 µM.

Turning to `O=C(NO)c1ccc2c(c1)OCCN(C(=O)C(OC1CCOCC1)c1ccccc1)C2` (stereo not shown) [N-hydroxy-4-(2-phenyl-2-((tetrahydro-2H-pyran-4-yl)oxy)acetyl)-2,3,4,5-tetrahydrobenzo[f][1,4]oxazepine-8-carboxamide], the IC50 was over 0.5 µM.

As to `C[C@H]1COc2cc(C(=O)NO)ccc2CN1C(=O)CC1CCOCC1` [(S)-N-hydroxy-3-methyl-4-(2-(tetrahydro-2H-pyran-4-yl)acetyl)-2,3,4,5-tetrahydrobenzo[f][1,4]oxazepine-8-carboxamide], the IC50 was in the range of 0.1 to 0.5 µM.

On to `C[C@H]1COc2cc(C(=O)NO)ccc2CN1C(=O)c1nc2ccccc2[nH]1` [(S)-4-(1H-benzo[d]imidazole-2-carbonyl)-N-hydroxy-3-methyl-2,3,4,5-tetrahydrobenzo[f][1,4]oxazepine-8-carboxamide], for which the IC50 is at most 0.1 µM.

With `CC1(C(=O)N2CCOc3cc(C(=O)NO)ccc3C2)CCOCC1` [N-hydroxy-4-(4-methyltetrahydro-2H-pyran-4-carbonyl)-2,3,4,5-tetrahydrobenzo[f][1,4]oxazepine-8-carboxamide], the IC50 is at most 0.1 µM.

Consider `CO[C@H]1CC[C@H](C(=O)N2CCOc3cc(C(=O)NO)ccc3[C@@H]2C)CC1` (single isomer, unassigned), for which the IC50 is at most 0.1 µM.

With `O=CN1CCOc2cc(C(=O)NO)ccc2C1` [4-formyl-N-hydroxy-2,3,4,5-tetrahydrobenzo[f][1,4]oxazepine-8-carboxamide], the IC50 is at most 0.1 µM.

Turning to `O=C(NO)c1ccc2c(c1)OCCN(C(=O)C1CCS(=O)(=O)CC1)C2` [4-(1,1-dioxidotetrahydro-2H-thiopyran-4-carbonyl)-N-hydroxy-2,3,4,5-tetrahydrobenzo[f][1,4]oxazepine-8-carboxamide], the IC50 was at most 0.1 µM.

As to `O=C(NO)c1ccc2c(c1)OCCN(C(=O)C1COC1)C2` [N-hydroxy-4-(oxetane-3-carbonyl)-2,3,4,5-tetrahydrobenzo[f][1,4]oxazepine-8-carboxamide], the IC50 is at most 0.1 µM.

As for `O=C(NO)c1ccc2c(c1)OCCN(C(=O)C1CCC(F)(F)CC1)C2` [4-(4,4-difluorocyclohexane-1-carbonyl)-N-hydroxy-2,3,4,5-tetrahydrobenzo[f][1,4]oxazepine-8-carboxamide], the IC50 lay within 0.1 to 0.5 µM.

`COC1(C(=O)N2Cc3ccc(C(=O)NO)cc3OC[C@@H]2C)CCOCC1` [(S)-N-hydroxy-4-(4-methoxytetrahydro-2H-pyran-4-carbonyl)-3-methyl-2,3,4,5-tetrahydrobenzo[f][1,4]oxazepine-8-carboxamide]: the IC50 is at most 0.1 µM.

For `Cc1ccn(C(C)(C)C(=O)N2CCOc3cc(C(=O)NO)ccc3C2)n1` [N-hydroxy-4-(2-methyl-2-(3-methyl-1H-pyrazol-1-yl)propanoyl)-2,3,4,5-tetrahydrobenzo[f][1,4]oxazepine-8-carboxamide], the IC50 is at most 0.1 µM.

For the compound `O=C(NO)c1ccc2c(c1)OCCN(C(=O)C1CC3(CCNCC3)c3ccccc31)C2` (stereo not shown) [4-(2,3-dihydrospiro[indene-1,4′-piperidine]-3-carbonyl)-N-hydroxy-2,3,4,5-tetrahydrobenzo[f][1,4]oxazepine-8-carboxamide], the IC50 was 0.1 to 0.5 µM.

Regarding `CO[C@H]1CC[C@@H](C(=O)N2CCOc3cc(C(=O)NO)ccc3[C@@H]2C)CC1` (single isomer, unassigned), the IC50 is at most 0.1 µM.
